Measurements: ChEMBL document CHEMBL5042473 (J Med Chem, 2022)

Assays:
[1] = biological target: Mitogen-activated protein kinase 14 (Homo sapiens, UniProt Q16539); assay: Inhibition of human p38 MAPK alpha incubated for 1 hr by photometric method
[2] = Cytotoxicity against Balb/c mouse splenocytes assessed as metabolic activity at 100 nM incubated for 24 hrs by MTT assay relative to LPS-stimulated splenocytes; format: toxicity, cell-based, Splenocyte; conditions: read-out: Activity
[3] = Metabolic stability in human liver microsomes assessed as parent compound remaining incubated for 120 mins; format: ADME, Microsome; conditions: read-out: Stability
[4] = system: Splenocyte; assay: Cytotoxicity against Balb/c mouse splenocytes assessed as metabolic activity at 1 to 10 nM incubated for 24 hrs by MTT assay; format: toxicity, cell-based; conditions: 0.01 µM, dose 1-10 nM
[5] = system: Splenocyte; assay: Antiinflammatory activity against LPS-stimulated Balb/c mouse splenocytes assessed as reduction in IL-6 at 1 nM incubated for 24 hrs by ELISA based method; format: functional; set-up: scale not given: the % may be the effect or the level left
[6] = system: Splenocyte; assay: Antiinflammatory activity against LPS-stimulated Balb/c mouse splenocytes assessed as reduction in IL-6 at 10 nM incubated for 24 hrs by ELISA based method; format: functional; set-up: scale not given: the % may be the effect or the level left
[7] = system: Splenocyte; assay: Antiinflammatory activity against LPS-stimulated Balb/c mouse splenocytes assessed as reduction in IL-6 at 100 nM incubated for 24 hrs by ELISA based method; format: functional; set-up: scale not given: the % may be the effect or the level left
[8] = system: Blood; assay: Antiinflammatory activity against LPS-stimulated C57BL/6 mouse whole blood assessed as reduction in TNF-alpha at 1 nM incubated for 24 hrs by ELISA based method; format: functional; set-up: scale not given: the % may be the effect or the level left
[9] = Drug concentration in mouse C57BL/6 brain at 0.4 mg/kg,po measured at 2 hrs by LC-MS/MS analysis; format: ADME, organism-based; conditions: C57BL/6, mouse, read-out: Drug uptake
[10] = Ratio of drug concentration in mouse C57BL/6 brain to plasma at 0.4 mg/kg, po measured at 2 hrs by LC-MS/MS analysis; format: ADME, organism-based; conditions: C57BL/6, mouse, brain and plasma
[11] = Drug concentration in mouse C57BL/6 heart at 0.4 mg/kg,po measured at 4 hrs by LC-MS/MS analysis; format: ADME, organism-based; conditions: C57BL/6, mouse, read-out: Drug uptake
[12] = Drug concentration in mouse C57BL/6 liver at 0.4 mg/kg,po measured at 4 hrs by LC-MS/MS analysis; format: ADME, organism-based; conditions: C57BL/6, mouse, read-out: Drug uptake
[13] = Drug concentration in mouse C57BL/6 kidney at 0.4 mg/kg,po measured at 4 hrs by LC-MS/MS analysis; format: ADME, organism-based; conditions: C57BL/6, mouse, read-out: Drug uptake
[14] = Drug concentration in mouse C57BL/6 brain at 0.4 mg/kg,po measured at 4 hrs by LC-MS/MS analysis; format: ADME, organism-based; conditions: C57BL/6, mouse, read-out: Drug uptake
[15] = biological target: hERG (Homo sapiens, UniProt Q12809); assay: Inhibition of hERG at 10 uM by fluorimetric analysis relative to control; format: toxicity
Sequence of hERG (Q12809 whole entry): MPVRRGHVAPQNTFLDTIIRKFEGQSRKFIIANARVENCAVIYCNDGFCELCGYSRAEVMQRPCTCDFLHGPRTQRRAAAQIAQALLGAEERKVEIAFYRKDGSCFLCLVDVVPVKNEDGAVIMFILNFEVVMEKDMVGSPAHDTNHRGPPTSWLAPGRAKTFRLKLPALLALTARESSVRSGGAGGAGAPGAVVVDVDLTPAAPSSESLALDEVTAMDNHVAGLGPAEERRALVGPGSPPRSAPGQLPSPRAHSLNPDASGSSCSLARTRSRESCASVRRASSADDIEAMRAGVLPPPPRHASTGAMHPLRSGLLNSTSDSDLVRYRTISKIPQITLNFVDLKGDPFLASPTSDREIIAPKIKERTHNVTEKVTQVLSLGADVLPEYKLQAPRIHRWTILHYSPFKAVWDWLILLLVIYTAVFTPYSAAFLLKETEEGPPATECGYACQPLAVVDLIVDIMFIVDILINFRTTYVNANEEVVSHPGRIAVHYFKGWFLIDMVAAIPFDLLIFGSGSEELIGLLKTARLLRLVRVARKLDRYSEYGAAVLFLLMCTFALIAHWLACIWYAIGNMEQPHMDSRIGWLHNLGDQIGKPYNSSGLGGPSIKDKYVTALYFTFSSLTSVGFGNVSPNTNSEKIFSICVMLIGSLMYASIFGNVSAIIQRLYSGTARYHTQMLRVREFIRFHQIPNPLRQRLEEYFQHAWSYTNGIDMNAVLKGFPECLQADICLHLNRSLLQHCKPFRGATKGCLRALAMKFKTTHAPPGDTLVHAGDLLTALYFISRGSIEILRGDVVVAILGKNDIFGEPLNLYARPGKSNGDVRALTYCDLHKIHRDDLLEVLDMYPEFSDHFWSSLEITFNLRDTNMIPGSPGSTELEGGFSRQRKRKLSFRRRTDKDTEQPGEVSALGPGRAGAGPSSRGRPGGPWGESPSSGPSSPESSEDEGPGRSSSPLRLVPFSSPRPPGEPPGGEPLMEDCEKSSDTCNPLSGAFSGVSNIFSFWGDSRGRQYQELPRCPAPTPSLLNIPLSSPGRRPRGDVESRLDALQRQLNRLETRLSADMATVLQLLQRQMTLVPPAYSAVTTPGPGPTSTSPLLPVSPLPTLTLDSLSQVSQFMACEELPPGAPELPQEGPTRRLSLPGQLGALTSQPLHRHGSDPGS

[16] = biological target: T1, CYP1A2 (Homo sapiens, UniProt P05177); assay: Inhibition of human recombinant CYP1A2 at 10 uM relative to control; format: ADME
T1 sequence (P05177 whole entry): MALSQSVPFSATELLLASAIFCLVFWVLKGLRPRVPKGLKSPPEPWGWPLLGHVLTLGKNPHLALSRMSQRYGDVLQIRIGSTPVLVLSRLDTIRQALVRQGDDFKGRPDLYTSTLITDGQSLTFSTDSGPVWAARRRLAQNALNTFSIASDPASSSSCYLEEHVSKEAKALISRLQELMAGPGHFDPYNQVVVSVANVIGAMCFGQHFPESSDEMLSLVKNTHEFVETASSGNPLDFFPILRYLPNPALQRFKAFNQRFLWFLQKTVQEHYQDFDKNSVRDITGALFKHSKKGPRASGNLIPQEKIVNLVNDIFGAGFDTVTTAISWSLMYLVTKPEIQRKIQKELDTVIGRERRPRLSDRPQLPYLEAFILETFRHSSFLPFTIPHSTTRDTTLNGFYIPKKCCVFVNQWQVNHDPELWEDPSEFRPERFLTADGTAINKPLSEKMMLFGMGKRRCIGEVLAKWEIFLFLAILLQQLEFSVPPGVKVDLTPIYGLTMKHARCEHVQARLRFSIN

[17] = biological target: CYP2C9 (Homo sapiens, UniProt P11712); assay: Inhibition of human recombinant CYP2C9 at 10 uM relative to control; format: ADME
Sequence of CYP2C9 (P11712 whole entry): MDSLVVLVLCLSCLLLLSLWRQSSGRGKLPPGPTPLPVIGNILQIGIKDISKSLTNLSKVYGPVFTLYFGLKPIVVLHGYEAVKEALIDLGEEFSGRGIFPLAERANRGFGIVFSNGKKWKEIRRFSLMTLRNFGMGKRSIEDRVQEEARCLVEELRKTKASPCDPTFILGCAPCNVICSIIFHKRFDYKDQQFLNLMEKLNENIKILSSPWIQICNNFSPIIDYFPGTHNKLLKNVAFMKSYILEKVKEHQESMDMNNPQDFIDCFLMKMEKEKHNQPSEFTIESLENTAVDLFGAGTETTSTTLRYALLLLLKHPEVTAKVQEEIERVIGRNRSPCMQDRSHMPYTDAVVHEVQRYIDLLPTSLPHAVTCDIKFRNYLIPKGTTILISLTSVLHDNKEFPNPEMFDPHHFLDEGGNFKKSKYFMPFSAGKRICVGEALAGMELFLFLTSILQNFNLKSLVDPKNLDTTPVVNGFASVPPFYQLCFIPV

[18] = biological target: CYP2C19 (Homo sapiens, UniProt P33261); assay: Inhibition of human recombinant CYP2C19 at 10 uM relative to control; format: ADME
Sequence of CYP2C19 (P33261 whole entry): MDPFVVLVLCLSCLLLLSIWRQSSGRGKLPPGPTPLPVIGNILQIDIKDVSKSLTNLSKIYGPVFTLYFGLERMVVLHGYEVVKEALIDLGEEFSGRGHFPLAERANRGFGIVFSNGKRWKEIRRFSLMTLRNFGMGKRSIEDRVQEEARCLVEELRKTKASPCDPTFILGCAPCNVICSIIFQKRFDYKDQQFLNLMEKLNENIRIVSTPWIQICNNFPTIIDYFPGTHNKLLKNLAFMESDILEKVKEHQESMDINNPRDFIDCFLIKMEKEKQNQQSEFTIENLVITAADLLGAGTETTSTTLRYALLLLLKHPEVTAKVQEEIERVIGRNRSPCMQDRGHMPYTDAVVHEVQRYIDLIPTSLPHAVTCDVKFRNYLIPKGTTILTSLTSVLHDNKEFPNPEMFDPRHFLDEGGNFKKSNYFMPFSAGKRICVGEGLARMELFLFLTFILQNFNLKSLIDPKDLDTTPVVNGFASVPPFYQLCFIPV

[19] = biological target: CYP2D6 (Homo sapiens, UniProt P10635); assay: Inhibition of human recombinant CYP2D6 at 10 uM relative to control; format: ADME
Sequence of CYP2D6 (P10635 whole entry): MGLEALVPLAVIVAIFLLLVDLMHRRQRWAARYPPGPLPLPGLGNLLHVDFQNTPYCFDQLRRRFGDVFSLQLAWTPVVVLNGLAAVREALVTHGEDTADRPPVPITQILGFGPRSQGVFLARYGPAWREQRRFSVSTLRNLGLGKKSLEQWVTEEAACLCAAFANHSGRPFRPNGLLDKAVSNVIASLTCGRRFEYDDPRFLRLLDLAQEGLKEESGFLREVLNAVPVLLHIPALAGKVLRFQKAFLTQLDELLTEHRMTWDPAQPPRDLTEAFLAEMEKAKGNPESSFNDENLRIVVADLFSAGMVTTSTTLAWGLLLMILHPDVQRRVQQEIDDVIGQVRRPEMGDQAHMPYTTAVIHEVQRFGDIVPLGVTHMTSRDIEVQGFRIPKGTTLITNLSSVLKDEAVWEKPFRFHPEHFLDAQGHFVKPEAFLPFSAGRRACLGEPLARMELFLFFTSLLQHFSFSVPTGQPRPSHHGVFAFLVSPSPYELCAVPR

[20] = biological target: CYP3A4 (Homo sapiens, UniProt P08684); assay: Inhibition of human recombinant CYP3A4 at 10 uM relative to control; format: ADME
Sequence of CYP3A4 (P08684 whole entry): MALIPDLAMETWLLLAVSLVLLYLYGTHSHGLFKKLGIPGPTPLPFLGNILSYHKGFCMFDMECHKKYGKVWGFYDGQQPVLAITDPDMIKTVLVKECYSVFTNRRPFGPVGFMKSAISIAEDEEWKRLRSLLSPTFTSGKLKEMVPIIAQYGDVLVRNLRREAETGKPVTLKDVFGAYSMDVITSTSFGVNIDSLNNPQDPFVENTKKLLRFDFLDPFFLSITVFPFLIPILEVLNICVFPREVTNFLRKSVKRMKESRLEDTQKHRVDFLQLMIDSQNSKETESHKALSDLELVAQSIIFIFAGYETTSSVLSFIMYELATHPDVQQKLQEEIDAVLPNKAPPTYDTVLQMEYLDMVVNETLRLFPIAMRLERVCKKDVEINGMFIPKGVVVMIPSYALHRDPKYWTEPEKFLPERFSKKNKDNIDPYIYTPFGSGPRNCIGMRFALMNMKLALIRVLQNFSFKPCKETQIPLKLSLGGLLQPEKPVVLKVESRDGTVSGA

[21] = Ratio of drug concentration in RjOrl:Swiss (CD-1) mouse brain to plasma at 10mg/kg, iv administered measured after 2 hrs by LC-MS/MS analysis; format: ADME, organism-based; conditions: brain and plasma, read-out: BPR
[22] = Drug uptake in RjOrl:Swiss (CD-1) mouse brain at 10 mg/kg, iv administered measured after 2 hrs by LC-MS/MS analysis; format: ADME, organism-based; conditions: read-out: Ct
[23] = system: Blood; assay: Antiinflammatory activity against LPS-stimulated C57BL/6 mouse whole blood assessed as reduction in IL-6 incubated for 24 hrs by ELISA based method; format: functional; set-up: scale not given: the % may be the effect or the level left; conditions: dose 1-100 nM, at 1 to 100 nM
[24] = system: Blood; assay: Antiinflammatory activity against LPS-stimulated C57BL/6 mouse whole blood assessed as reduction in TNF-alpha at 10 nM incubated for 24 hrs by ELISA based method; format: functional; conditions: C57BL/6, Blood
[25] = system: Blood; assay: Reduction in LPS-stimulated TNF-alpha release in human whole blood incubated for 15 mins by ELISA based method; conditions: 0.25 h
[26] = Drug concentration in mouse C57BL/6 brain at 0.4 mg/kg,iv measured at 2 hrs by LC-MS/MS analysis; format: ADME, organism-based; conditions: C57BL/6, mouse, read-out: Drug uptake
[27] = Drug uptake in mouse C57BL/6 brain at 0.4 mg/kg,iv measured upto 240 mins by LC-MS/MS analysis; format: ADME, organism-based; conditions: in vivo, 4 h
[28] = Drug uptake in mouse C57BL/6 brain at 0.4 mg/kg,po measured upto 240 mins by LC-MS/MS analysis; format: ADME, organism-based; conditions: in vivo, 4 h
[29] = Drug concentration in rat brain at 6 mg/kg, iv measured after 24 hrs by LC/MS/MS analysis; conditions: in vivo
[30] = Drug concentration in rat plasma at 6 mg/kg, iv measured after 24 hrs by LC/MS/MS analysis
[31] = Ratio of drug concentration in rat brain to plasma; conditions: brain and plasma
[32] = Drug concentration in rat brain at 1.5 mg/kg, po measured after 1 hrs by LC/MS/MS analysis; format: ADME, organism-based; conditions: in vivo
[33] = Drug concentration in rat plasma at 1.5 mg/kg, po measured after 1 hrs by LC/MS/MS analysis; format: ADME, organism-based
[34] = Drug concentration in rat brain at 4.5 mg/kg, po measured after 1 hrs by LC/MS/MS analysis; format: ADME, organism-based; conditions: in vivo
[35] = Drug concentration in rat plasma at 4.5 mg/kg, po measured after 1 hrs by LC/MS/MS analysis; format: ADME, organism-based

Sequence of Mitogen-activated protein kinase 14 (Q16539 whole entry): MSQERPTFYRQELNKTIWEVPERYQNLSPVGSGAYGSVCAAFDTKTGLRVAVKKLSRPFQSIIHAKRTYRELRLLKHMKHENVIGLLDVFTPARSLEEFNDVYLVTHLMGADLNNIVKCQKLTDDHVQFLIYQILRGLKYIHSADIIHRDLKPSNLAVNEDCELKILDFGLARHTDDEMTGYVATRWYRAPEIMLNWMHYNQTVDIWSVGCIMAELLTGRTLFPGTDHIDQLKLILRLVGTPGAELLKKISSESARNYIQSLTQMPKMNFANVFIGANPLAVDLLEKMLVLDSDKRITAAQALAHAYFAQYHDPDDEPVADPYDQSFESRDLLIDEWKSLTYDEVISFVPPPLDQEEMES

Structure (SMILES)	IC50 [1]	viability at 24 h, 0.1 µM [2]	remaining at 2 h [3]	Activity [4]	inhibition at 10 µM [15]	inhibition at 10 µM [16]	inhibition at 10 µM [17]	inhibition at 10 µM [18]	inhibition at 10 µM [19]	inhibition at 10 µM [20]	Activity [23]	inhibition at 0.01 µM [24]	also measured
Nc1ccccc1Nc1ccc2c(c1)CCc1ccc(C(=O)NCCC(=O)O)cc1C2=O	0.98 nM	66%	99%	Non-Toxic	22.5%	28.1%	13.1%	21.8%	11.4%	4.1%	–	–	Activity [5]: 138%; Activity [6]: 118%; Activity [7]: 29%; Activity [8]: 5%; concentration at 2 h [9]: 590 nM; Kp at 2 h [10]: 4.7; concentration at 4 h [11]: 120 nM; concentration at 4 h [12]: 330 nM; concentration at 4 h [13]: 380 nM; concentration at 4 h [14]: 540 nM
O=C(O)CCNC(=O)c1ccc2c(c1)C(=O)c1ccc(Nc3ccc(F)cc3F)cc1CC2	5.5 nM	66%	97%	Non-Toxic	11.8%	33.6%	98.5%	100%	3%	54.8%	–	–	Kp at 2 h [21]: 1.25; Activity [8]: 5%; concentration at 2 h [22]: 103 ng/g
COC(=O)CCNC(=O)c1ccc2c(c1)C(=O)c1ccc(Nc3ccc(F)cc3F)cc1CC2	1.2 nM	66%	0%	Non-Toxic	59.9%	27.3%	99.4%	100%	73.7%	68%	85%	50%	–
O=C(NCCN1CC2(COC2)C1)c1ccc2c(c1)C(=O)c1ccc(Nc3ccc(F)cc3F)cc1CC2	5.9 nM	–	47%	–	76.6%	0%	88.7%	93.6%	18.3%	83.6%	–	–	Kp at 2 h [21]: 0.16; concentration at 2 h [22]: 68 ng/g
O=C(O)CCCNC(=O)c1ccc2c(c1)C(=O)c1ccc(Nc3ccc(F)cc3F)cc1CC2	12 nM	66%	99%	Non-Toxic	14.4%	16.2%	66%	63.2%	2%	38.1%	71%	50%	Kp at 2 h [21]: 4.38; concentration at 2 h [22]: 98.2 ng/g
COC(=O)CCCNC(=O)c1ccc2c(c1)C(=O)c1ccc(Nc3ccc(F)cc3F)cc1CC2	3.4 nM	66%	–	Non-Toxic	49.7%	11.6%	68.4%	60.4%	3%	34.9%	64%	50%	IC50 [25]: 64 nM
COC(=O)CCNC(=O)c1ccc2c(c1)C(=O)c1ccc(Nc3ccccc3N)cc1CC2	29 nM	66%	–	Non-Toxic	–	–	–	–	–	–	81%	50%	–
CNC(=O)c1ccc2c(c1)C(=O)c1ccc(Nc3ccccc3N)cc1CC2	5.7 nM	66%	3%	Non-Toxic	–	–	–	–	–	–	–	–	concentration at 2 h [26]: 20 nM; concentration at 2 h [9]: 20 nM
O=C(Nc1ccccc1)c1ccc2c(c1)C(=O)c1ccc(Nc3ccc(F)cc3F)cc1CC2	2.4 nM	66%	–	Non-Toxic	–	–	–	–	–	–	–	–	Activity [7]: 51%; Activity [8]: 5%; Drug uptake [27]: Not Active; Drug uptake [28]: Not Active
CN1CCN(c2cc(-c3ccncc3)c(-c3ccc4ccccc4c3)nn2)CC1 [MW-150]	–	–	–	–	–	–	–	–	–	–	–	–	Ct [29]: 1030 nmol/kg; concentration at 24 h [30]: 390 ng/mL
O=c1ncn2nc(Sc3ccc(F)cc3F)ccc2c1-c1c(Cl)cccc1Cl [NEFLAMAPIMOD]	–	–	–	–	–	–	–	–	–	–	–	–	Kp [31]: 1.7; Ct [32]: 129 nmol/kg; concentration at 1 h [33]: 33 ng/mL; Ct [34]: 359 nmol/kg; concentration at 1 h [35]: 92 ng/mL
